The text below walks through data of paper PMC8113725, “Structure–activity relationship of ipglycermide binding to phosphoglycerate mutases” (The Journal of Biological Chemistry, 2021).

Each structure is given as a SMILES string. Bridge positions count the residues as written; N and C are the ends. Square brackets hold non-standard residues; d marks the D form. Peptide text beside a SMILES is read from it.

This experiment addresses D. immitis iPGM (Dirofilaria immitis, UniProt F4ZE01). Kind of experiment: biochemical. The following applies: Di iPGM Ave IC50 (M).
As usually defined, the IC50 is the concentration needed to halve the response being measured. Read a low IC50 as greater potency in that assay. The molecule `COc1ccc(C[C@H](NC(=O)[C@@H]2CSCC(=O)N[C@H](Cc3ccc(O)cc3)C(=O)N[C@@H](CC(=O)O)C(=O)N[C@@H](Cc3ccc(O)cc3)C(=O)N3CCC[C@H]3C(=O)NCC(=O)N[C@@H](CC(=O)O)C(=O)N[C@@H](Cc3ccc(O)cc3)C(=O)N2)C(=O)N[C@@H](CC(C)C)C(=O)N[C@@H](Cc2ccc(O)cc2)C(N)=O)cc1` [Ce-2d Y9(4OMe)F] yielded an IC50 of 2.04e-06 M. This counts as single-digit micromolar.

As to `CC(C)C[C@H](NC(=O)[C@H](Cc1ccc(O)cc1)NC(=O)[C@@H]1CSCC(=O)N[C@H](Cc2ccc(F)cc2)C(=O)N[C@@H](CC(=O)O)C(=O)N[C@@H](Cc2ccc(O)cc2)C(=O)N2CCC[C@H]2C(=O)NCC(=O)N[C@@H](CC(=O)O)C(=O)N[C@@H](Cc2ccc(O)cc2)C(=O)N1)C(=O)N[C@@H](Cc1ccc(O)cc1)C(N)=O` [Ce-2d Y1D(4F)F], the midpoint of inhibition, the IC50, lay at 3.7e-08 M.

`CC(C)C[C@H](NC(=O)[C@H](Cc1ccc(O)cc1)NC(=O)[C@@H]1CSCC(=O)N[C@H](Cc2ccc(O)cc2)C(=O)N[C@@H](CC(=O)O)C(=O)N[C@@H](Cc2ccc(O)cc2)C(=O)N[C@@H](C)C(=O)NCC(=O)N[C@@H](CC(=O)O)C(=O)N[C@@H](Cc2ccc(O)cc2)C(=O)N1)C(=O)N[C@@H](Cc1ccc(O)cc1)C(N)=O` [Ce-2d P4A] had an IC50 of 7.94e-08 M.

`CC(C)C[C@H](NC(=O)[C@H](Cc1ccc(O)cc1)NC(=O)[C@@H]1CSCC(=O)N[C@H](Cc2ccc(O)cc2)C(=O)N[C@@H](CC(=O)O)C(=O)N[C@@H](Cc2ccc(O)cc2)C(=O)N2CCC[C@H]2C(=O)NCC(=O)N[C@@H](CC(N)=O)C(=O)N[C@@H](Cc2ccc(O)cc2)C(=O)N1)C(=O)N[C@@H](Cc1ccc(O)cc1)C(N)=O` [Ce-2d D6N]: the half-maximal inhibitory concentration (IC50) came to 6.18e-06 M. This IC50 lies about 78-fold higher than the previous one.

With `CC(C)C[C@H](NC(=O)[C@H](Cc1ccc(O)cc1)NC(=O)[C@@H]1CSCC(=O)N[C@H](Cc2ccc(O)cc2)C(=O)N[C@@H](C(C)C)C(=O)N[C@@H](Cc2ccc(O)cc2)C(=O)N2CCC[C@H]2C(=O)NCC(=O)N[C@@H](CC(=O)O)C(=O)N[C@@H](Cc2ccc(O)cc2)C(=O)N1)C(=O)N[C@@H](Cc1ccc(O)cc1)C(N)=O` [Ce-2d D2V], the IC50 was determined as 5.77e-07 M.

`CC(C)C[C@H](NC(=O)[C@H](Cc1ccc(O)cc1)NC(=O)[C@@H]1CSCC(=O)N[C@H](Cc2ccc(O)cc2)C(=O)N[C@@H](CC(=O)O)C(=O)N[C@@H](Cc2ccc(F)cc2)C(=O)N2CCC[C@H]2C(=O)NCC(=O)N[C@@H](CC(=O)O)C(=O)N[C@@H](Cc2ccc(O)cc2)C(=O)N1)C(=O)N[C@@H](Cc1ccc(O)cc1)C(N)=O` [Ce-2d Y3(4F)F]: the half-inhibitory concentration (IC50) stood at 1.48e-07 M. This IC50 is about 3.9-fold lower than that of the molecule before.

`COc1ccc(C[C@@H]2NC(=O)[C@H](CC(=O)O)NC(=O)CNC(=O)[C@@H]3CCCN3C(=O)[C@H](Cc3ccc(O)cc3)NC(=O)[C@H](CC(=O)O)NC(=O)[C@@H](Cc3ccc(O)cc3)NC(=O)CSC[C@@H](C(=O)N[C@@H](Cc3ccc(O)cc3)C(=O)N[C@@H](CC(C)C)C(=O)N[C@@H](Cc3ccc(O)cc3)C(N)=O)NC2=O)cc1` [Ce-2d Y7(4OMe)F] showed an IC50 of 6.79e-08 M.

`CC(C)C[C@H](NC(=O)[C@H](Cc1ccc(O)cc1)NC(=O)[C@@H]1CSCC(=O)N[C@H](Cc2ccc(O)cc2)C(=O)N[C@@H](CC(=O)O)C(=O)N[C@@H](Cc2c[nH]c3ccccc23)C(=O)N2CCC[C@H]2C(=O)NCC(=O)N[C@@H](CC(=O)O)C(=O)N[C@@H](Cc2ccc(O)cc2)C(=O)N1)C(=O)N[C@@H](Cc1ccc(O)cc1)C(N)=O` [Ce-2d Y3W] came in with an IC50 of 7.09e-06 M.

Regarding `CC(C)C[C@H](NC(=O)[C@H](Cc1ccc(O)cc1)NC(=O)[C@@H]1CSCC(=O)N[C@H](Cc2ccc(O)cc2)C(=O)N[C@@H](CC(=O)O)C(=O)N[C@@H](Cc2ccc(F)cc2)C(=O)N2CCC[C@H]2C(=O)NCC(=O)N[C@@H](CC(=O)O)C(=O)N[C@@H](Cc2ccccc2)C(=O)N1)C(=O)N[C@@H](Cc1ccc(O)cc1)C(=O)NCC(=O)N[C@H](C(=O)N[C@@H](CS)C(N)=O)[C@@H](C)O`, the IC50 was found to be 1.41e-09 M. This IC50 lies about 5000-fold lower than the previous one.

Consider `CC(C)C[C@H](NC(=O)[C@H](Cc1ccc(O)cc1)NC(=O)[C@@H]1CSCC(=O)N[C@H](Cc2ccc(O)cc2)C(=O)N[C@@H](CCC(=O)O)C(=O)N[C@@H](Cc2ccc(O)cc2)C(=O)N2CCC[C@H]2C(=O)NCC(=O)N[C@@H](CC(=O)O)C(=O)N[C@@H](Cc2ccc(O)cc2)C(=O)N1)C(=O)N[C@@H](Cc1ccc(O)cc1)C(N)=O` [Ce-2d D2E], for which the half-inhibitory concentration (IC50) was 9.99e-08 M.

With `CC(C)C[C@H](NC(=O)[C@H](Cc1ccc(O)cc1)NC(=O)[C@@H]1CSCC(=O)N[C@H](Cc2ccc(O)cc2)C(=O)N[C@@H](CC(=O)O)C(=O)N[C@@H](Cc2ccccc2)C(=O)N2CCC[C@H]2C(=O)NCC(=O)N[C@@H](CC(=O)O)C(=O)N[C@@H](Cc2ccc(O)cc2)C(=O)N1)C(=O)N[C@@H](Cc1ccc(O)cc1)C(N)=O` [Ce-2d Y3F], half-maximal inhibition (IC50) required 3.2e-06 M.

With `CC(C)C[C@H](NC(=O)[C@H](Cc1ccc(O)cc1)NC(=O)[C@@H]1CSCC(=O)N[C@H](Cc2ccc(O)cc2)C(=O)N[C@@H](CC(=O)O)C(=O)N[C@@H](Cc2ccc(O)cc2)C(=O)N2CCC[C@H]2C(=O)NCC(=O)N[C@@H](CC(=O)O)C(=O)N[C@@H](Cc2ccc(O)cc2)C(=O)N1)C(=O)N[C@@H](Cc1ccc(O)cc1)C(=O)O` [Ce-2d Y11COOH], the IC50 worked out at 7.75e-07 M.

On to `CC(C)C[C@H](NC(=O)[C@H](Cc1ccccc1)NC(=O)[C@@H]1CSCC(=O)N[C@H](Cc2ccc(O)cc2)C(=O)N[C@@H](CC(=O)O)C(=O)N[C@@H](Cc2ccc(O)cc2)C(=O)N2CCC[C@H]2C(=O)NCC(=O)N[C@@H](CC(=O)O)C(=O)N[C@@H](Cc2ccc(O)cc2)C(=O)N1)C(=O)N[C@@H](Cc1ccc(O)cc1)C(N)=O` [Ce-2d Y9F], for which it took 1.43e-05 M to reach half-maximal inhibition (IC50).

`CC(C)C[C@H](NC(=O)[C@H](Cc1ccc(O)cc1)NC(=O)[C@@H]1CSCC(=O)N[C@H](Cc2ccc(O)cc2)C(=O)NCC(=O)N[C@@H](Cc2ccc(O)cc2)C(=O)N2CCC[C@H]2C(=O)NCC(=O)N[C@@H](CC(=O)O)C(=O)N[C@@H](Cc2ccc(O)cc2)C(=O)N1)C(=O)N[C@@H](Cc1ccc(O)cc1)C(N)=O` [Ce-2d D2G] showed a 50% inhibitory concentration (IC50) of 1.32e-06 M. Compared with the last molecule, the IC50 is about 11-fold lower.

On to `CC(C)[C@H](NC(=O)[C@H](Cc1ccc(O)cc1)NC(=O)[C@@H]1CSCC(=O)N[C@H](Cc2ccc(O)cc2)C(=O)N[C@@H](CC(=O)O)C(=O)N[C@@H](Cc2ccc(O)cc2)C(=O)N2CCC[C@H]2C(=O)NCC(=O)N[C@@H](CC(=O)O)C(=O)N[C@@H](Cc2ccc(O)cc2)C(=O)N1)C(=O)N[C@@H](Cc1ccc(O)cc1)C(N)=O` [Ce-2d L10V], for which the 50% inhibitory concentration (IC50) was 1.93e-06 M.

In turn, `CC(C)C[C@H](NC(=O)[C@H](Cc1ccc(O)cc1)NC(=O)[C@@H]1CSCC(=O)N[C@H](Cc2ccc(O)cc2)C(=O)N[C@@H](CC(=O)O)C(=O)N[C@@H](Cc2ccc(O)cc2)C(=O)N2CCC[C@H]2C(=O)NCC(=O)N[C@@H](CC(=O)O)C(=O)N[C@@H](CO)C(=O)N1)C(=O)N[C@@H](Cc1ccc(O)cc1)C(N)=O` [Ce-2d Y7S] had a concentration for half-maximal inhibition (IC50) of 1.78e-07 M.

`CC(C)C[C@H](NC(=O)[C@H](Cc1ccc(F)cc1)NC(=O)[C@@H]1CSCC(=O)N[C@H](Cc2ccc(O)cc2)C(=O)N[C@@H](CC(=O)O)C(=O)N[C@@H](Cc2ccc(O)cc2)C(=O)N2CCC[C@H]2C(=O)NCC(=O)N[C@@H](CC(=O)O)C(=O)N[C@@H](Cc2ccc(O)cc2)C(=O)N1)C(=O)N[C@@H](Cc1ccc(O)cc1)C(N)=O` [Ce-2d Y9(4F)F] displayed an IC50 of 3.33e-07 M.

Consider `CC(C)C[C@H](NC(=O)[C@H](CC(C)C)NC(=O)[C@H](Cc1ccc(O)cc1)NC(=O)[C@@H]1CSCC(=O)N[C@H](Cc2ccc(O)cc2)C(=O)N[C@@H](CC(=O)O)C(=O)N[C@@H](Cc2ccc(O)cc2)C(=O)N2CCC[C@H]2C(=O)NCC(=O)N[C@@H](CC(=O)O)C(=O)N[C@@H](Cc2ccc(O)cc2)C(=O)N1)C(N)=O` [Ce-2d Y11L], for which it took 2.43e-07 M to reach half-maximal inhibition (IC50). This IC50 and that of the molecule before are within 1.5-fold of each other.

With `CC(C)C[C@H](NC(=O)[C@H](Cc1ccc(O)cc1)NC(=O)[C@@H]1CSCC(=O)N[C@H](Cc2ccc(O)cc2)C(=O)N[C@@H](CC(=O)O)C(=O)N[C@@H](Cc2ccccc2)C(=O)N2CCC[C@H]2C(=O)NCC(=O)N[C@@H](CC(=O)O)C(=O)N[C@@H](Cc2ccc(O)cc2)C(=O)N1)C(=O)N[C@@H](Cc1ccc(O)cc1)C(=O)NCC(=O)N[C@H](C(=O)N[C@@H](CS)C(N)=O)[C@@H](C)O` [Ce-2 Y3F] ({CH2CO}-[dY]DFPGDYCYLYGTC-NH2; thioether N-8), the IC50 came out at 2.42e-09 M.

Consider `CC(C)C[C@H](NC(=O)[C@H](Cc1ccc(O)cc1)NC(=O)[C@@H]1CSCC(=O)N[C@H](Cc2ccc(O)cc2)C(=O)N[C@@H](CC(=O)O)C(=O)N[C@@H](Cc2ccc(O)cc2)C(=O)N2CCC[C@H]2C(=O)NCC(=O)N[C@@H](CC(=O)O)C(=O)N[C@@H](Cc2ccc(O)cc2)C(=O)N1)C(=O)N[C@@H](Cc1ccccc1)C(N)=O` [Ce-2d Y11F], for which the 50% inhibitory concentration (IC50) stood at 9.89e-08 M. This IC50 is about 41-fold higher than that of the molecule before.

In the case of `CC(C)C[C@H](NC(=O)[C@H](Cc1ccc(O)cc1)NC(=O)[C@@H]1CSCC(=O)N[C@@H](Cc2ccc(F)cc2)C(=O)N[C@@H](CC(=O)O)C(=O)N[C@@H](Cc2ccc(O)cc2)C(=O)N2CCC[C@H]2C(=O)NCC(=O)N[C@@H](CC(=O)O)C(=O)N[C@@H](Cc2ccc(O)cc2)C(=O)N1)C(=O)N[C@@H](Cc1ccc(O)cc1)C(N)=O` [Ce-2d Y1(4F)F], 5.35e-08 M corresponded to half-maximal inhibition (IC50).

`CC(C)C[C@H](NC(=O)[C@H](Cc1ccc(O)cc1)NC(=O)[C@@H]1CSCC(=O)N[C@H](Cc2ccc(O)cc2)C(=O)N[C@@H](CC(=O)O)C(=O)N[C@@H](Cc2ccc(O)cc2)C(=O)N2CCC[C@H]2C(=O)N[C@@H](CCC(N)=O)C(=O)N[C@@H](CC(=O)O)C(=O)N[C@@H](Cc2ccc(O)cc2)C(=O)N1)C(=O)N[C@@H](Cc1ccc(O)cc1)C(N)=O` [Ce-2d G5Q] gave a half-inhibitory concentration (IC50) of 5.99e-06 M.

Molecule `CC(C)C[C@H](NC(=O)[C@H](Cc1ccc(O)cc1)NC(=O)[C@@H]1CSCC(=O)N[C@H](Cc2ccc(O)cc2)C(=O)N[C@@H](CC(=O)O)C(=O)N[C@@H](Cc2ccc(O)cc2)C(=O)N2CCC[C@H]2C(=O)NCC(=O)N[C@@H](CC(=O)O)C(=O)N[C@@H](Cc2ccc(O)cc2)C(=O)N1)C(=O)N[C@@H](Cc1ccc(F)cc1)C(N)=O` [Ce-2d Y11(4F)F] gave an IC50 of 7.11e-08 M.
